Laboratory results: the CheMixHub ionic liquid set

Test: xn = mol fraction of the nth substance listed
Settings: 101 kPa

CCCCCCCCCCCCCC[n+]1ccccc1.O=C([O-])C(O)c1ccccc1 + CC(C)C[C@H](N)C(=O)O + O
electrical conductivity [S/m]
Settings | 293.15 K | 298.15 K | 303.15 K | 308.15 K | 313.15 K
x1 = 4.89e-06, x2 = 0.0009002 | 0.00294 | 0.00331 | 0.00369 | 0.0041 | 0.0045
x1 = 5.65e-06, x2 = 0.001799 | 0.00333 | 0.00365 | 0.004 | 0.00436 | 0.0047
x1 = 6.85e-06, x2 = 0 | 0.00248 | 0.00278 | 0.00309 | 0.0034 | 0.0037
x1 = 1.069e-05, x2 = 0.0009002 | 0.00459 | 0.0052 | 0.00582 | 0.0064 | 0.0071
x1 = 1.13e-05, x2 = 0.001799 | 0.00474 | 0.00522 | 0.00572 | 0.0065 | 0.0071
x1 = 1.424e-05, x2 = 0 | 0.00472 | 0.00529 | 0.00587 | 0.0065 | 0.0071
x1 = 1.54e-05, x2 = 0.0009002 | 0.0059 | 0.00666 | 0.0074 | 0.0083 | 0.0091
x1 = 1.695e-05, x2 = 0.001799 | 0.00622 | 0.00689 | 0.0075 | 0.0086 | 0.0093
x1 = 2.084e-05, x2 = 0.0009002 | 0.00743 | 0.0084 | 0.0093 | 0.0104 | 0.0114
x1 = 2.126e-05, x2 = 0 | 0.00671 | 0.0076 | 0.0084 | 0.0093 | 0.0101
x1 = 2.205e-05, x2 = 0.001799 | 0.0077 | 0.0086 | 0.0094 | 0.0106 | 0.0116
x1 = 2.519e-05, x2 = 0.0009002 | 0.0086 | 0.0097 | 0.0107 | 0.012 | 0.0132
x1 = 2.733e-05, x2 = 0.001799 | 0.0091 | 0.0102 | 0.0111 | 0.0125 | 0.0137
x1 = 2.811e-05, x2 = 0 | 0.0086 | 0.0097 | 0.0108 | 0.0122 | 0.0131
x1 = 2.972e-05, x2 = 0.0009002 | 0.0098 | 0.0111 | 0.0124 | 0.0138 | 0.0152
x1 = 3.28e-05, x2 = 0.001799 | 0.0103 | 0.0116 | 0.0129 | 0.0144 | 0.0158
x1 = 3.46e-05, x2 = 0 | 0.0103 | 0.0116 | 0.0129 | 0.0145 | 0.0157
x1 = 3.552e-05, x2 = 0.0009002 | 0.0112 | 0.0126 | 0.0141 | 0.0157 | 0.0174
x1 = 3.863e-05, x2 = 0.001799 | 0.0115 | 0.0129 | 0.0144 | 0.016 | 0.0177
x1 = 4.108e-05, x2 = 0 | 0.0117 | 0.0131 | 0.0146 | 0.0161 | 0.0179
x1 = 4.186e-05, x2 = 0.0009001 | 0.0124 | 0.014 | 0.0157 | 0.0175 | 0.0194
x1 = 4.41e-05, x2 = 0.001799 | 0.0124 | 0.0138 | 0.0155 | 0.0172 | 0.0191
x1 = 4.811e-05, x2 = 0 | 0.0129 | 0.0144 | 0.0161 | 0.0179 | 0.0198
x1 = 4.838e-05, x2 = 0.0009001 | 0.0134 | 0.0151 | 0.017 | 0.0189 | 0.0211
x1 = 5.139e-05, x2 = 0.001799 | 0.0135 | 0.0152 | 0.0168 | 0.019 | 0.021
x1 = 5.388e-05, x2 = 0 | 0.0137 | 0.0154 | 0.0172 | 0.0191 | 0.0211
x1 = 5.509e-05, x2 = 0.0009001 | 0.0144 | 0.0162 | 0.018 | 0.0203 | 0.0225
x1 = 5.868e-05, x2 = 0.001799 | 0.0146 | 0.0162 | 0.018 | 0.0203 | 0.0225
x1 = 5.982e-05, x2 = 0 | 0.0145 | 0.0163 | 0.0182 | 0.0202 | 0.0224
x1 = 6.179e-05, x2 = 0.0009001 | 0.0152 | 0.0172 | 0.0192 | 0.0215 | 0.0239
x1 = 6.559e-05, x2 = 0 | 0.0153 | 0.0172 | 0.0192 | 0.0213 | 0.0236
x1 = 6.56e-05, x2 = 0.001799 | 0.0153 | 0.0171 | 0.0192 | 0.0216 | 0.0239
x1 = 6.813e-05, x2 = 0.0009001 | 0.0161 | 0.0181 | 0.0203 | 0.0227 | 0.0252
x1 = 7.081e-05, x2 = 0 | 0.016 | 0.018 | 0.02 | 0.0223 | 0.0246
x1 = 7.216e-05, x2 = 0.001799 | 0.0161 | 0.0181 | 0.0203 | 0.0227 | 0.0252
x1 = 7.484e-05, x2 = 0.0009001 | 0.0169 | 0.0191 | 0.0214 | 0.0239 | 0.0266
x1 = 7.604e-05, x2 = 0 | 0.0167 | 0.0187 | 0.0209 | 0.0232 | 0.0258
x1 = 7.908e-05, x2 = 0.001799 | 0.0169 | 0.019 | 0.0214 | 0.0238 | 0.0265
x1 = 8.072e-05, x2 = 0 | 0.0173 | 0.0194 | 0.0217 | 0.0241 | 0.0266

CCCCCCCCCCCCCC[n+]1ccccc1.O=C([O-])C(O)c1ccccc1 + CC(C)[C@H](N)C(=O)O + O
electrical conductivity [S/m]
Settings | 293.15 K | 298.15 K | 303.15 K | 308.15 K | 313.15 K
x1 = 6.19e-06, x2 = 0.001799 | 0.00217 | 0.00247 | 0.00278 | 0.00312 | 0.00346
x1 = 6.85e-06, x2 = 0 | 0.00248 | 0.00278 | 0.00309 | 0.0034 | 0.0037
x1 = 8.87e-06, x2 = 0.0009002 | 0.00274 | 0.00311 | 0.00349 | 0.00388 | 0.00427
x1 = 1.146e-05, x2 = 0.001799 | 0.00366 | 0.00413 | 0.00464 | 0.0052 | 0.0057
x1 = 1.424e-05, x2 = 0 | 0.00472 | 0.00529 | 0.00587 | 0.0065 | 0.0071
x1 = 1.485e-05, x2 = 0.0009002 | 0.00439 | 0.00496 | 0.00555 | 0.0061 | 0.0068
x1 = 1.674e-05, x2 = 0.001799 | 0.0051 | 0.00578 | 0.0065 | 0.0072 | 0.008
x1 = 1.847e-05, x2 = 0.0009002 | 0.00537 | 0.00606 | 0.0068 | 0.0075 | 0.0083
x1 = 2.126e-05, x2 = 0 | 0.00671 | 0.0076 | 0.0084 | 0.0093 | 0.0101
x1 = 2.202e-05, x2 = 0.001799 | 0.00655 | 0.0074 | 0.0083 | 0.0093 | 0.0102
x1 = 2.264e-05, x2 = 0.0009002 | 0.00641 | 0.0072 | 0.0081 | 0.009 | 0.0099
x1 = 2.693e-05, x2 = 0.001799 | 0.00788 | 0.0089 | 0.01 | 0.0111 | 0.0123
x1 = 2.698e-05, x2 = 0.0009002 | 0.00756 | 0.0086 | 0.0096 | 0.0106 | 0.0117
x1 = 2.811e-05, x2 = 0 | 0.0086 | 0.0097 | 0.0108 | 0.0122 | 0.0131
x1 = 3.187e-05, x2 = 0.0009002 | 0.0089 | 0.01 | 0.0113 | 0.0125 | 0.0138
x1 = 3.257e-05, x2 = 0.001799 | 0.0094 | 0.0106 | 0.0119 | 0.0132 | 0.0146
x1 = 3.46e-05, x2 = 0 | 0.0103 | 0.0116 | 0.0129 | 0.0145 | 0.0157
x1 = 3.876e-05, x2 = 0.001799 | 0.0107 | 0.0121 | 0.0136 | 0.0152 | 0.0169
x1 = 3.93e-05, x2 = 0.0009001 | 0.0105 | 0.0119 | 0.0133 | 0.0148 | 0.0164
x1 = 4.108e-05, x2 = 0 | 0.0117 | 0.0131 | 0.0146 | 0.0161 | 0.0179
x1 = 4.549e-05, x2 = 0.001799 | 0.0119 | 0.0134 | 0.0151 | 0.0169 | 0.0188
x1 = 4.618e-05, x2 = 0.0009001 | 0.0116 | 0.0131 | 0.0147 | 0.0165 | 0.0183
x1 = 4.811e-05, x2 = 0 | 0.0129 | 0.0144 | 0.0161 | 0.0179 | 0.0198
x1 = 5.295e-05, x2 = 0.001799 | 0.0129 | 0.0146 | 0.0164 | 0.0183 | 0.0203
x1 = 5.324e-05, x2 = 0.0009001 | 0.0126 | 0.0142 | 0.0159 | 0.0178 | 0.0198
x1 = 5.388e-05, x2 = 0 | 0.0137 | 0.0154 | 0.0172 | 0.0191 | 0.0211
x1 = 5.982e-05, x2 = 0 | 0.0145 | 0.0163 | 0.0182 | 0.0202 | 0.0224
x1 = 6.012e-05, x2 = 0.0009001 | 0.0134 | 0.015 | 0.017 | 0.0191 | 0.0212
x1 = 6.078e-05, x2 = 0.001799 | 0.014 | 0.0158 | 0.0177 | 0.0198 | 0.0221
x1 = 6.559e-05, x2 = 0 | 0.0153 | 0.0172 | 0.0192 | 0.0213 | 0.0236
x1 = 6.609e-05, x2 = 0.0009001 | 0.0142 | 0.016 | 0.018 | 0.0202 | 0.0224
x1 = 6.788e-05, x2 = 0.001799 | 0.015 | 0.0169 | 0.0189 | 0.0211 | 0.0236
x1 = 7.081e-05, x2 = 0 | 0.016 | 0.018 | 0.02 | 0.0223 | 0.0246
x1 = 7.153e-05, x2 = 0.0009001 | 0.0149 | 0.0168 | 0.0189 | 0.0212 | 0.0236
x1 = 7.424e-05, x2 = 0.001799 | 0.0158 | 0.0179 | 0.0201 | 0.0224 | 0.0249
x1 = 7.604e-05, x2 = 0 | 0.0167 | 0.0187 | 0.0209 | 0.0232 | 0.0258
x1 = 7.714e-05, x2 = 0.0009001 | 0.0156 | 0.0176 | 0.0198 | 0.0223 | 0.0248
x1 = 8.025e-05, x2 = 0.001799 | 0.0166 | 0.0188 | 0.0211 | 0.0236 | 0.0262
x1 = 8.072e-05, x2 = 0 | 0.0173 | 0.0194 | 0.0217 | 0.0241 | 0.0266
x1 = 8.257e-05, x2 = 0.0009001 | 0.0163 | 0.0185 | 0.0208 | – | –
